Reference: PMC3177832, “Structure-Based Development of Small Molecule PFKFB3 Inhibitors: A Framework for Potential Cancer Therapeutic Agents Targeting the Warburg Effect” (PLoS ONE, 2011)
“Also recorded” adds a separate entry of the source.

Tests used:
[1] = test system: HeLa and T47D cells; assay: Cell growth inhibition (XTT assay or trypan blue counting); assay type: cell-based, human; settings: for GI50: Homo sapiens, 36 hours incubation, inhibitor concentration for 50% of vehicle-treated cell growth; for Reduction in cell proliferation: 25 µM, human adenocarcinoma cells, compared to unexposed cells
Experimental: (§1) Cell growth inhibition was determined by an XTT-based in-vitro toxicology assay (Sigma-Aldrich) or trypan blue staining. Cells were plated at a density of 3.5×10^4 per well in a 24-well plate in DMEM containing 10% FCS. These cells were allowed to attach for 24 hours, and the media were replaced with fresh media containing either vehicle (dimethyl sulfoxide) or appropriate concentrations of test compounds. After 36 hours of incubation with either vehicle or compounds, cells were trypsinized and cell viability was determined by the trypan blue exclusion assay using a hemacytometer. For the XTT assay, cells were seeded into 96-well cell culture plates at a density of 0.6×10^4 per well. After the appropriate treatment described above, cells were incubated with 0.1 mg/ml of 2,3-bis(2-methoxy-4-nitro-5-sulfophenyl)-5-[(phenylamino)carbonyl]-2H-tetrazolium hydroxide (XTT) for 4 hours and then cell number was determined by the absorbance at 470 nm, which is proportional to the number of cells that remained attached to the plate. GI50s were calculated as the inhibitor concentration needed for 50% of vehicle-treated cell growth. The appearance of apoptotic or necrotic cells was determined by flow cytometric analysis of cells double stained with Annexin V-FITC and propidium iodide (PI). Apoptotic and necrotic cells were distinguished on the basis of double-labeling for Annexin V-FITC (Sigma-Aldrich) and PI, a membrane-impermeable DNA stain. Floating and freshly trypsinized cells were pooled, washed twice in binding buffer, and processed following manufacturer's instructions. The fluorescence of samples were analyzed by flow cytometry (FACSCalibur®, Becton Dickinson Immunocytometry, San Jose, CA) using the CellQuest (BD Bioscience, Immunocytometry Systems, San Jose, CA, USA) software.

[2] = molecular target: T1, human PFKFB3 (Homo sapiens, UniProt Q16875); assay: 2-Kase assay and kinetic analysis (enzyme-coupled); assay type: biochemical; settings: for Inhibition (type): Lineweaver-Burk analysis; for IC50: PFKFB3 2-Kase activity; for Ki: steady state inhibition against Fru-6-P; for PFKFB3 inhibition at twice the IC50: twice the IC50 for PFKFB3 (N4A = 6 µM, YN1 = 1.3 µM)
T1 construct: The structure contains a total of 443 amino acid residues of the full-length protein of 520 residues; 6xHis; made in house; host or cells: Escherichia coli BL21(DE3) pLysS
Experimental: To determine steady-state initial reaction rates, the 2-Kase reactions were performed first and the Fru-2,6-BP produced was measured by a conventional enzyme-coupled kinetics assay as described previously, [36]. Initial rates of decrease in absorbance (Abs) at 340 nm were corrected with the rate of the control reaction in which no Fru-2,6-BP was present. Negative controls were carried out in the absence of enzyme and positive controls indicate the reaction in the presence of enzyme without inhibitor compounds. […] IC50 values were determined in quadruplicate. For the kinetic studies, concentrations of one of substrate and inhibitor were varied and decrease in absorbance at 340 nm was measured. The inhibition patterns were analyzed using the program written by Cleland, in which Ki is the dissociation constants for the inhibitor from enzyme-inhibitor complex. For Selectivity studies, the 2-Kase assays were performed first and the F-2,6-P2 produced was measured by an enzyme coupled kinetics assay as described above. The His6-tagged PFKFB isoforms, PFKFB1, PFKFB2, and PFKFB4 were expressed in Escherichia coli C41(DE3) and purified using Ni-NTA affinity columns.

[3] = molecular target: T2, PFKFB1 (Homo sapiens, UniProt P16118); assay: 2-Kase assay, isoform selectivity; assay type: biochemical; settings: N4A = 6 µM, YN1 = 1.3 µM
T2 construct: His6; made in house; host or cells: Escherichia coli C41(DE3)
Experimental: (§2) To determine steady-state initial reaction rates, the 2-Kase reactions were performed first and the Fru-2,6-BP produced was measured by a conventional enzyme-coupled kinetics assay as described previously, [36]. Initial rates of decrease in absorbance (Abs) at 340 nm were corrected with the rate of the control reaction in which no Fru-2,6-BP was present. Negative controls were carried out in the absence of enzyme and positive controls indicate the reaction in the presence of enzyme without inhibitor compounds. The percentage of Inhibitory activity was calculated according to the formula: % inhibition = 100×[1−(Absnegativecontrol−Abscompound)/(Absnegativecontrol−Abspositivecontrol)]. IC50 values were determined in quadruplicate. For the kinetic studies, concentrations of one of substrate and inhibitor were varied and decrease in absorbance at 340 nm was measured. The inhibition patterns were analyzed using the program written by Cleland, in which Ki is the dissociation constants for the inhibitor from enzyme-inhibitor complex. For Selectivity studies, the 2-Kase assays were performed first and the F-2,6-P2 produced was measured by an enzyme coupled kinetics assay as described above. The His6-tagged PFKFB isoforms, PFKFB1, PFKFB2, and PFKFB4 were expressed in Escherichia coli C41(DE3) and purified using Ni-NTA affinity columns.

[4] = molecular target: T3, PFKFB4 (Homo sapiens, UniProt Q16877); assay: 2-Kase assay, isoform selectivity; assay type: biochemical; settings: N4A = 6 µM, YN1 = 1.3 µM
T3 construct: His6; made in house; host or cells: Escherichia coli C41(DE3)
Experimental: as §2

[5] = molecular target: T4, PFKFB2 (Homo sapiens, UniProt O60825); assay: 2-Kase assay, isoform selectivity; assay type: biochemical; settings: N4A = 6 µM, YN1 = 1.3 µM
T4 construct: His6; made in house; host or cells: Escherichia coli C41(DE3)
Experimental: as §2

[6] = test system: HeLa cells; assay: Cellular Fru-2,6-BP level determination; assay type: cell-based, human; settings: 25 µM
Experimental: (§3) HeLa cells were plated at a density of 2.5×10^5 in a 6-well plate in DMEM containing 10% FCS. The media were replaced with fresh DMEM containing either vehicle (dimethyl sulfoxide) or 25 µM of inhibitor the following day. After 0, 4, 8, 12, 24, or 48 hours of incubation with each inhibitor, media samples were collected for measuring the lactate secretion levels using a lactate oxidase-based assay kit (Sigma-Aldrich) and the lactate concentration was normalized to the total cellular protein concentration. The Fru-2,6-BP level was determined with collected cells at times of 0, 4,8,12,24, or 48 hours after the treatment, using the method described previously.

[7] = test system: HeLa cells; assay: Soft agar colony formation; assay type: cell-based, human; settings: 3 weeks; for Soft agar colony formation: HeLa cells, 25, 50 and 100 µM; for inhibition at 25 µM: Homo sapiens, 504 h, HeLa cells
Experimental: For HeLa cell colony formation was determined by soft agar assay. Cells ([…]) were mixed in DMEM medium containing 0.35% agarose and varying concentrations of N4A or YN1. Then the cell mixture was added on a layer of 0.6% concentration of bottom agar in 24 well plates and allowed to grow for three weeks at 37°Cunder 5% CO2. Fresh medium containing the inhibitors or vehicle (DMSO) was changed every four days. Colonies of 50 cells or more were counted after three weeks. The experiments were repeated at least five times.

[8] = test system: HeLa cells; assay: Flow cytometric analysis of cell death (Annexin V-FITC / PI); assay type: cell-based, human
Experimental: as §1

[9] = test system: HeLa cells; assay: Lactate secretion (lactate oxidase-based assay kit); assay type: cell-based, human; settings: 25 µM
Experimental: as §3

T1 sequence (Q16875 whole entry): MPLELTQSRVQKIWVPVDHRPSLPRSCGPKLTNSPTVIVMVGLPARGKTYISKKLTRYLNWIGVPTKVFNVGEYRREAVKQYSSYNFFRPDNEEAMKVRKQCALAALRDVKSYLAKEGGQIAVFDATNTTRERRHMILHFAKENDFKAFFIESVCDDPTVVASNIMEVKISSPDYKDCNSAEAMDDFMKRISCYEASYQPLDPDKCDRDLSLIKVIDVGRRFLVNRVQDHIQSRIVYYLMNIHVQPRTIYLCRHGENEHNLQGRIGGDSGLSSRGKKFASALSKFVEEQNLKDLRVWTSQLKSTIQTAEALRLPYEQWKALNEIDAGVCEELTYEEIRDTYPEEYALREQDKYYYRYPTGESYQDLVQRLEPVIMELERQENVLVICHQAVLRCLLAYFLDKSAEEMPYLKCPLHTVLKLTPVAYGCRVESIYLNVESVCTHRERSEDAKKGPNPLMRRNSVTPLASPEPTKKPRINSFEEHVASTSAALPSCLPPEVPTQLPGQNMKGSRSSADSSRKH
T4 sequence (O60825 whole entry, canonical isoform): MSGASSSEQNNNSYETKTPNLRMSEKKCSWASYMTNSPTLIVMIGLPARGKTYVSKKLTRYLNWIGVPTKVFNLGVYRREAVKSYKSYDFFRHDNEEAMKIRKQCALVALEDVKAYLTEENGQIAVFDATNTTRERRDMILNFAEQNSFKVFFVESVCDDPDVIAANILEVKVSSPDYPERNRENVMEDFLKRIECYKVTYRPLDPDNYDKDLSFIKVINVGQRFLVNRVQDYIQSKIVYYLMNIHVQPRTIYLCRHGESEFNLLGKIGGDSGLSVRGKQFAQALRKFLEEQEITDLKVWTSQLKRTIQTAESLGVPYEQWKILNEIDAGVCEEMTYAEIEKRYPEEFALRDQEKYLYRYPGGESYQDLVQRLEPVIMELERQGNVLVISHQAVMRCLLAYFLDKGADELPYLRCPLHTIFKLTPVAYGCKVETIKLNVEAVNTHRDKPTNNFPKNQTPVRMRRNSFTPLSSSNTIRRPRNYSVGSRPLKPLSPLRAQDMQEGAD
T3 sequence (Q16877 whole entry, canonical isoform): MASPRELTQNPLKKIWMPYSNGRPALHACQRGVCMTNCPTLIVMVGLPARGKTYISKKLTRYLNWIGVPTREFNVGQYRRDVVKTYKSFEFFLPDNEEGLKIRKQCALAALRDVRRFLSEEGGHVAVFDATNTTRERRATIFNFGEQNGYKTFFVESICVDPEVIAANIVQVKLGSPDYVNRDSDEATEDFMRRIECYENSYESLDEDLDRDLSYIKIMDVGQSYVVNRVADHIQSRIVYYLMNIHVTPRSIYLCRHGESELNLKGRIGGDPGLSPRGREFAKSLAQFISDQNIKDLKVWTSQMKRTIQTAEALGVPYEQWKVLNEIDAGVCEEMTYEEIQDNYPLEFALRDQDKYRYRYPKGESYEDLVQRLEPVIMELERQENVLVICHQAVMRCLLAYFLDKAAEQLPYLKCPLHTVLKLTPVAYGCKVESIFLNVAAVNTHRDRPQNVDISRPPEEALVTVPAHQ
T2 sequence (P16118 whole entry, canonical isoform): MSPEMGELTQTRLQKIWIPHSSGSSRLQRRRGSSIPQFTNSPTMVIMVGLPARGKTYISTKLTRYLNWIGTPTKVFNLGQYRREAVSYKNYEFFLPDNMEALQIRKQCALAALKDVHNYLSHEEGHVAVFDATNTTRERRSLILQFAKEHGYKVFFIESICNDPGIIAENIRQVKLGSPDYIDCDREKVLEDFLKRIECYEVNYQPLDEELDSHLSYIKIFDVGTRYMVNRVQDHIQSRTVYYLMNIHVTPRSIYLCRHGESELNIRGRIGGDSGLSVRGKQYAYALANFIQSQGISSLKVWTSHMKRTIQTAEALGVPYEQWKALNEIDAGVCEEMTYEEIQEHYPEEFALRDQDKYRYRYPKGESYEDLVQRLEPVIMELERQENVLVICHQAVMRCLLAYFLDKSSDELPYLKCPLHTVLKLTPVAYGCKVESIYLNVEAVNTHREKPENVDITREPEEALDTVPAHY

| Structure (SMILES) | GI50 [1] [µM] | Effect of Tween-20 on PFKFB3 inhibition ([2]; 10 µM compound, in the presence of 0.1% Tween-20) | inhibition at 10 µM ([2]; 10 µM compound, substrate-saturating conditions) [%] | Inhibition (type) [2] | IC50 [2] [nM] | Ki [2] [nM] | PFKFB3 inhibition at twice the IC50 [2] | PFKFB1 inhibition at twice the IC50 for PFKFB3 [3] | PFKFB4 inhibition at twice the IC50 for PFKFB3 [4] | PFKFB2 inhibition at twice the IC50 for PFKFB3 [5] | Reduction of Fru-2,6-BP level ([6]; 48-hour exposure) | Reduction of Fru-2,6-BP level ([6]; 8 hour exposure) | Soft agar colony formation [7] | inhibition at 25 µM [7] [%] | Type of cell death induced ([8]; 25 µM) | Type of cell death induced ([8]; 50 µM) | Type of cell death induced ([8]; Annexin V / PI) | Reduction in cell proliferation [1] | Decrease in lactate secretions [9] | Increase in PFKFB3 inhibition compared to N4A ([2]; relative to lead N4A) [fold] |
| --- | --- | --- | --- | --- | --- | --- | --- | --- | --- | --- | --- | --- | --- | --- | --- | --- | --- | --- | --- | --- |
| CCOC(=O)c1cc2ccc(O)cc2oc1=O [YZ9, ethyl 7-hydroxy-2-oxochromene-3-carboxylate] | 2.7 ± 0.2 | – | – | – | – | – | – | – | – | – | – | – | – | – | – | – | – | – | – | – |
| O=c1cc(-c2ccc(O)cc2)oc2c(O)c(O)c(O)c(O)c12 [N4A, 5,6,7,8-tetrahydroxy-2-(4-hydroxyphenyl) chromen-4-one] | 14.2 ± 1.5 | not affected | > 65 | competitive inhibitor against Fru-6-P; also recorded: Competitive to Fru-6-P | 2970 ± 160 | 1290 ± 260 | over 80% | less than 50% | less than 50% | less than 50% | over 40% | approximately 20% | significantly inhibited colony formation | 64 | prone to apoptosis | death by necrosis was significantly increased | induced both apoptotic and necrotic cell death | 70% | greater than 30% | – |
| O=c1c(-c2ccc(O)cc2)coc2c(O)c(O)ccc12 [YN1, 7,8-dihydroxy-3-(4-hydroxyphenyl) chromen-4-one] | 8.2 ± 0.8 | – | – | Competitive to Fru-6-P | 670 ± 80 | 240 ± 30 | over 80% | less than 40% | less than 40% | less than 40% | over 40% | approximately 20% | significantly inhibited colony formation | 79 | prone to apoptosis | death by necrosis was significantly increased | induced both apoptotic and necrotic cell death | over 90% | greater than 30% | 5 |
